Assay results published in the NIST ThermoML archive (doi:10.1021/je049777o).
Numbers after ± are expanded uncertainties.

Experiment: xn = mol fraction of the nth substance listed
Settings: 101.3 kPa, Liquid

COC(=O)OC [dimethyl carbonate] + CCCCCCC
Settings | mass density [kg/m3] | viscosity [mPa·s]
293.15 K, x1 = 0.1099 | 709.87 ± 0.66 | 0.3932 ± 0.0082
293.15 K, x1 = 0.2176 | 735.33 ± 0.62 | 0.3924 ± 0.0082
293.15 K, x1 = 0.3229 | 763.59 ± 0.57 | 0.4001 ± 0.0082
293.15 K, x1 = 0.4259 | 794.8 ± 0.51 | 0.4139 ± 0.0082
293.15 K, x1 = 0.5266 | 829.38 ± 0.46 | 0.4321 ± 0.0083
293.15 K, x1 = 0.6252 | 867.51 ± 0.39 | 0.4541 ± 0.0085
293.15 K, x1 = 0.7218 | 910.1 ± 0.32 | 0.4774 ± 0.0086
293.15 K, x1 = 0.8165 | 957.71 ± 0.26 | 0.5078 ± 0.0088
293.15 K, x1 = 0.9092 | 1011.41 ± 0.23 | 0.5511 ± 0.0091
293.15 K, x1 = 1 | 1069.54 ± 0.24 | 0.6173 ± 0.0096
298.15 K, x1 = 0.1099 | 705.39 ± 0.67 | 0.3737 ± 0.0081
298.15 K, x1 = 0.2176 | 730.61 ± 0.62 | 0.3723 ± 0.008
298.15 K, x1 = 0.3229 | 758.68 ± 0.57 | 0.3796 ± 0.008
298.15 K, x1 = 0.4259 | 789.63 ± 0.52 | 0.3911 ± 0.0081
298.15 K, x1 = 0.5266 | 823.98 ± 0.46 | 0.4095 ± 0.0082
298.15 K, x1 = 0.6252 | 861.86 ± 0.4 | 0.4261 ± 0.0083
298.15 K, x1 = 0.7218 | 904.23 ± 0.33 | 0.45 ± 0.0084
298.15 K, x1 = 0.8165 | 951.63 ± 0.27 | 0.4779 ± 0.0086
298.15 K, x1 = 0.9092 | 1005.04 ± 0.22 | 0.5169 ± 0.0089
298.15 K, x1 = 1 | 1062.95 ± 0.23 | 0.5734 ± 0.0093
303.15 K, x1 = 0.1099 | 700.93 ± 0.67 | 0.3559 ± 0.0079
303.15 K, x1 = 0.2176 | 725.89 ± 0.63 | 0.353 ± 0.0079
303.15 K, x1 = 0.3229 | 753.73 ± 0.58 | 0.3585 ± 0.0079
303.15 K, x1 = 0.4259 | 784.46 ± 0.53 | 0.3719 ± 0.008
303.15 K, x1 = 0.5266 | 818.56 ± 0.47 | 0.3855 ± 0.008
303.15 K, x1 = 0.6252 | 856.24 ± 0.41 | 0.4015 ± 0.0081
303.15 K, x1 = 0.7218 | 898.37 ± 0.34 | 0.423 ± 0.0082
303.15 K, x1 = 0.8165 | 945.53 ± 0.27 | 0.4491 ± 0.0084
303.15 K, x1 = 0.9092 | 998.7 ± 0.22 | 0.4793 ± 0.0086
303.15 K, x1 = 1 | 1056.35 ± 0.23 | 0.5403 ± 0.009
313.15 K, x1 = 0.1099 | 691.78 ± 0.68 | 0.32 ± 0.0077
313.15 K, x1 = 0.2176 | 716.32 ± 0.64 | 0.3195 ± 0.0077
313.15 K, x1 = 0.3229 | 743.68 ± 0.59 | 0.3248 ± 0.0077
313.15 K, x1 = 0.4259 | 773.95 ± 0.54 | 0.3316 ± 0.0077
313.15 K, x1 = 0.5266 | 807.58 ± 0.48 | 0.3435 ± 0.0077
313.15 K, x1 = 0.6252 | 844.82 ± 0.42 | 0.3588 ± 0.0078
313.15 K, x1 = 0.7218 | 886.49 ± 0.35 | 0.3777 ± 0.0079
313.15 K, x1 = 0.8165 | 933.18 ± 0.28 | 0.402 ± 0.0081
313.15 K, x1 = 0.9092 | 985.81 ± 0.23 | 0.4335 ± 0.0083
313.15 K, x1 = 1 | 1043.01 ± 0.21 | 0.4807 ± 0.0086
323.15 K, x1 = 0.1099 | 682.57 ± 0.7 | 0.2905 ± 0.0075
323.15 K, x1 = 0.2176 | 706.62 ± 0.65 | 0.292 ± 0.0075
323.15 K, x1 = 0.3229 | 733.52 ± 0.6 | 0.2932 ± 0.0075
323.15 K, x1 = 0.4259 | 763.34 ± 0.55 | 0.2997 ± 0.0075
323.15 K, x1 = 0.5266 | 796.47 ± 0.5 | 0.3118 ± 0.0075
323.15 K, x1 = 0.6252 | 833.28 ± 0.43 | 0.3251 ± 0.0076
323.15 K, x1 = 0.7218 | 874.5 ± 0.37 | 0.3403 ± 0.0077
323.15 K, x1 = 0.8165 | 920.24 ± 0.3 | 0.3615 ± 0.0078
323.15 K, x1 = 0.9092 | 972.84 ± 0.24 | 0.3906 ± 0.008
323.15 K, x1 = 1 | 1029.59 ± 0.19 | 0.427 ± 0.0082
333.15 K, x1 = 0.1099 | 673.2 ± 0.71 | 0.2666 ± 0.0073
333.15 K, x1 = 0.2176 | 696.76 ± 0.66 | 0.2648 ± 0.0073
333.15 K, x1 = 0.3229 | 723.19 ± 0.62 | 0.267 ± 0.0073
333.15 K, x1 = 0.4259 | 752.53 ± 0.57 | 0.273 ± 0.0073
333.15 K, x1 = 0.5266 | 785.19 ± 0.51 | 0.2828 ± 0.0074
333.15 K, x1 = 0.6252 | 821.51 ± 0.45 | 0.2946 ± 0.0074
333.15 K, x1 = 0.7218 | 862.31 ± 0.38 | 0.3099 ± 0.0075
333.15 K, x1 = 0.8165 | 908.07 ± 0.31 | 0.3291 ± 0.0076
333.15 K, x1 = 0.9092 | 959.74 ± 0.25 | 0.3543 ± 0.0078
333.15 K, x1 = 1 | 1016 ± 0.18 | 0.3893 ± 0.008
343.15 K, x1 = 0.1099 | 663.69 ± 0.72 | 0.2437 ± 0.0072
343.15 K, x1 = 0.2176 | 686.83 ± 0.68 | 0.2429 ± 0.0072
343.15 K, x1 = 0.3229 | 712.79 ± 0.63 | 0.2462 ± 0.0072
343.15 K, x1 = 0.4259 | 741.63 ± 0.58 | 0.2512 ± 0.0072
343.15 K, x1 = 0.5266 | 773.79 ± 0.53 | 0.2603 ± 0.0072
343.15 K, x1 = 0.6252 | 809.67 ± 0.47 | 0.2725 ± 0.0073
343.15 K, x1 = 0.7218 | 850.05 ± 0.4 | 0.2851 ± 0.0074
343.15 K, x1 = 0.8165 | 894.95 ± 0.33 | 0.3015 ± 0.0074
343.15 K, x1 = 0.9092 | 946.54 ± 0.26 | 0.3252 ± 0.0076
343.15 K, x1 = 1 | 1002.32 ± 0.16 | 0.3527 ± 0.0077
